SMILES strings stand for the structures.

For this assay, the target named is T1, human PTP1B (Homo sapiens, UniProt P18031).
T1 construct: human PTP1B (amino acid residues 1-321); made in house; host or cells: E. coli BL21(DE3)
T1 sequence (P18031 1-321): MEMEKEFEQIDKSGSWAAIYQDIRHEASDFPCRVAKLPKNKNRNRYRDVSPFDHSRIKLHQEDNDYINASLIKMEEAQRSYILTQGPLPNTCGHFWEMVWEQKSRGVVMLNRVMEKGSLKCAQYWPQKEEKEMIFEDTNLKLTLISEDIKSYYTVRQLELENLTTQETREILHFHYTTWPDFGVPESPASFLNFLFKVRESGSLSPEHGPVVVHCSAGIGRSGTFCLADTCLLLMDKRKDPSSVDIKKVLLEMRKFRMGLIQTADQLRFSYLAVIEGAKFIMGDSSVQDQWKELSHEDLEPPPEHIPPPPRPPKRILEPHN
Kind of assay: PTP1B assay, pNPP hydrolysis, assayed exactly as for PTP1. It is filed as biochemical. Particulars: for inhibition at 1 µM: Conc 1 uM; for inhibition at 1 µM / inhibition at 10 µM / inhibition at 100 µM: Table 2, read-out: PTP1B Inhib PTP1B. % Inhib; for PTP1B Inhib PTP1B. % Inhib: Table 2. The source says:
The equivalent construct of human PTP1B (amino acid residues 1-321) (cloned from a human placental library), without the GST tag and thrombin cleavage site, was inserted into a pMB replicon and transformed into E. coli BL21(DE3), a strain containing a chromosomal copy of the gene for T7 RNA polymerase under control of a lacUV5 promoter. Expression of PTP1B was induced with isopropyl thiogalactose and the soluble protein was purified by ion exchange, hydrophobic interaction and gel exclusion chromatography for use in the assay to identify PTP inhibitors.
PTP1 activity is measured using either p-nitrophenol phosphate (pNPP) or a triphosphopeptide (that matches residues 1142 through 1153 of the β-subunit and the insulin receptor) as substrate in a 96-well microtiter plate format. An assay pH of 7.2 is used for standard assays (measured 405=9800 at pH 7.2).
Human PTP1B, which is highly homologous to rat PTP1, was assayed exactly as described above for PTP1.
Standard assays are conducted at room temperature in a total volume of 0.2 ml that contains Hepes buffer (50 mM, pH 7.2), NaCl (50 mM), EDTA (1 mM), DTT (1 mM), bovine serum albumin (1 mg/ml), pNPP (1 mM) and PTP1 (35 ng/ml). Compounds (2 μl of 10 mM solutions) are pipetted into wells of microtiter plates followed by 198 μl of premixed reaction mix (with PTP1 and pNPP added immediately before use). The rate of change in A405 is recorded for 60 min. Two wells on each plate contain DMSO controls and two wells contain sodium orthovanadate (1 mM) which inhibits PTP1-catalyzed hydrolysis of pNPP completely. Data are expressed as percent inhibition relative to the average of the DMSO controls measured on the same microtiter plate.

As to `CCCCCNC(=O)C(Cc1ccc(OC(COO)COO)cc1)NC(=O)N(Cc1cccc(C(=O)O)c1)Cc1cccc(C(F)(F)F)c1` (centres unmarked), the inhibition at 1 µM is 3%. The inhibition at 10 µM (Conc 10 uM) stood at 9%. Besides, under “Conc 100 uM”, the inhibition at 100 µM worked out at 58%.
In the same order, the values of `CCCCCNC(=O)C(Cc1ccc(OC(COO)COO)cc1)NC(=O)N(Cc1ccccc1)C(CCc1ccccc1)CC(=O)O` (centres unmarked) are 5%, 8% and 42%.
Turning to `CCCCCNC(=O)C(Cc1ccc(OC(COO)COO)cc1)NC(=O)N1CCN(C(=O)OC(C)(C)C)CC1` (centres unmarked), the inhibition at 1 µM was found to be 19%. Under “Conc 10 uM”, the “PTP1B Inhib PTP1B. % Inhib” value was 63% and the inhibition at 10 µM came out at 68%. Where the note is “Conc 100 uM”, the “PTP1B Inhib PTP1B. % Inhib” value is 92% and the inhibition at 100 µM was 95%.
For `CCCCCNC(=O)C(Cc1ccc(OC(COO)COO)cc1)NC(=O)Nc1cccc(C(=O)O)c1` (centres unmarked), the inhibition at 1 µM is 17%. For the same compound, the inhibition at 10 µM (Conc 10 uM) came out at 63%. Moreover, the inhibition at 100 µM (Conc 100 uM) amounted to 94%.
In the same order, the values of `CCCCCNC(=O)C(Cc1ccc(OC(COO)COO)cc1)NC(=O)C(Cc1ccccc1)NC(=O)CCNC(=O)OC(C)(C)C` (centres unmarked) are 14%, 62% and 93%.
Taken in the same sequence, the figures for `CCCCCNC(=O)[C@H](Cc1ccc(OCC(=O)O)c(C(=O)O)c1)NC(=O)C(Cc1ccccc1)NC(=O)CSc1nnc[nH]1` (some centres unmarked) were 36%, 82% and 96%.
For `CCCCCNC(=O)[C@H](Cc1ccc(OCC(=O)O)c(C(=O)O)c1)NC(=O)C(Cc1ccccc1)NC(=O)Cn1nnnc1S` (some centres unmarked), the inhibition at 1 µM was found to be 57%. Besides, the inhibition at 10 µM (Conc 10 uM) was determined as 91%. Besides, the inhibition at 100 µM (Conc 100 uM) stood at 98%.
Turning to `CCCCCNC(=O)[C@H](Cc1ccc(OCC(=O)O)c(C(=O)O)c1)NC(=O)C(Cc1ccccc1)NC(=O)CSc1cnn[nH]1` (some centres unmarked), the inhibition at 1 µM worked out at 49%. For the same compound, the inhibition at 10 µM (Conc 10 uM) stood at 88%. Also, the inhibition at 100 µM (Conc 100 uM) turned out to be 98%.
In the same order, the values of `CCCCCNC(=O)[C@H](Cc1ccc(OCC(=O)OC)c(C(=O)O)c1)NC(=O)[C@H](Cc1ccccc1)NC(=O)OC(C)(C)C` are 3%, 5% and 25%.
Consider `CCCCCNC(=O)C(Cc1ccc(OC(COO)C(=O)O)cc1)C(=O)NCCC(=O)O` (centres unmarked), for which the inhibition at 1 µM amounted to 9%. The inhibition at 10 µM (Conc 10 uM) amounted to 15%. Also, the inhibition at 100 µM (Conc 100 uM) turned out to be 48%.
Turning to `CCCCCNC(=O)C(Cc1ccc(OC(COO)COO)cc1)NC(=O)C(Cc1ccccc1)NS(=O)OCc1ccccc1` (centres unmarked), the inhibition at 1 µM was 4%. Also, for the setting “Conc 10 uM”, the inhibition at 10 µM turned out to be 16%. For the setting “Conc 100 uM”, the inhibition at 100 µM stood at 62%.
Taken in the same sequence, the figures for `CCCCCNC(=O)C(Cc1ccc(OCCOO)c(COO)c1)NC(=O)C(Cc1ccccc1)NC(=O)Cc1c[nH]c2ccccc12` (centres unmarked) were 47%, 88% and 98%.
Taken in the same sequence, the figures for `CCCCCNC(=O)C(Cc1ccc(OCCOO)c(COO)c1)NC(=O)C(Cc1ccccc1)NC(=O)Cc1ccccc1` (centres unmarked) were 45%, 87% and 98%.
Taken in the same sequence, the figures for `CCCCCNC(=O)C(Cc1ccc(OCCOO)c(COO)c1)NC(=O)C(Cc1ccccc1)NC(=O)CCCc1ccccc1` (centres unmarked) were 19%, 70% and 96%.
In the case of `CCCCCNC(=O)C(Cc1ccc(OCCOO)c(COO)c1)NC(=O)C(Cc1ccccc1)NC(C)=O` (centres unmarked), the inhibition at 1 µM was 28%. Under “Conc 10 uM”, the inhibition at 10 µM worked out at 77%. For the same compound, the inhibition at 100 µM (Conc 100 uM) was determined as 96%.
Taken in the same sequence, the figures for `CCCCCNC(=O)C(Cc1ccc(OCCOO)c(COO)c1)NC(=O)C(Cc1ccccc1)NC(=O)CCOC` (centres unmarked) were 37%, 83% and 97%.
In the same order, the values of `CCCCCNC(=O)[C@H](Cc1ccc(N(CC(=O)O)CC(=O)O)cc1)NC(=O)[C@H](Cc1ccccc1)NC(=O)OC(C)(C)C` are 3%, 6% and 29%.
In the case of `CCCCCNC(=O)C(Cc1ccc(OC(COO)COO)cc1)NC(=O)C(Cc1ccccc1)NC(=O)CCOC` (centres unmarked), the inhibition at 1 µM worked out at 19%. Moreover, where the note is “Conc 10 uM”, the inhibition at 10 µM was 65%. For the same compound, the inhibition at 100 µM (Conc 100 uM) is 94%.
Taken in the same sequence, the figures for `CCCCCNC(=O)[C@H](Cc1ccc(OCC(=O)O)c(C(=O)NO)c1)NC(=O)[C@H](Cc1ccccc1)NC(=O)OC(C)(C)C` were 5%, 13% and 54%.
As for `CCCCCNC(=O)C(Cc1ccc(OCCOO)c(COO)c1)NC(=O)C(Cc1ccccc1)NC(=O)CCCO` (centres unmarked), the inhibition at 1 µM worked out at 23%. Moreover, the inhibition at 10 µM (Conc 10 uM) turned out to be 78%. Further, the inhibition at 100 µM (Conc 100 uM) worked out at 96%.
As for `CCCCCNC(=O)C(Cc1ccc(OCCOO)c(COO)c1)NC(=O)C(Cc1ccccc1)NC(=O)CCNC(=O)OC(C)(C)C` (centres unmarked), the inhibition at 1 µM came to 19%. The inhibition at 10 µM (Conc 10 uM) was 75%. The inhibition at 100 µM (Conc 100 uM) is 96%.
Regarding `CCCCCNC(=O)C(Cc1ccc(OCCOO)c(COO)c1)NC(=O)C(Cc1ccccc1)NC(=O)CCNS(C)(=O)=O` (centres unmarked), the inhibition at 1 µM stood at 15%. The inhibition at 10 µM (Conc 10 uM) amounted to 73%. Also, under “Conc 100 uM”, the inhibition at 100 µM was 95%.
Taken in the same sequence, the figures for `CCCCCNC(=O)C(Cc1ccc(OC(C(=O)O)C(=O)O)cc1)NC(=O)[C@H](Cc1c[nH]c2ccccc12)NC(=O)OC(C)(C)C` (some centres unmarked) were 10%, 44% and 89%.
With `CCCCCNC(=O)[C@H](Cc1ccc(OCC(=O)NO)c(C(=O)O)c1)NC(=O)[C@H](Cc1ccccc1)NC(=O)OC(C)(C)C`, the inhibition at 1 µM came out at 6%. The inhibition at 10 µM (Conc 10 uM) was found to be 8%. For the same compound, the inhibition at 100 µM (Conc 100 uM) is 30%.
Taken in the same sequence, the figures for `CCCCCNC(=O)C(Cc1ccc(OCCOO)c(COO)c1)NC(=O)C(Cc1ccccc1)NC(=O)Cc1cccc(O)c1` (centres unmarked) were 43%, 86% and 98%.
For the compound `CCCCCNC(=O)C(Cc1ccc(OCCOO)c(COO)c1)NC(=O)C(Cc1ccccc1)NC(=O)Cc1ccc(O)cc1` (centres unmarked), the inhibition at 1 µM came out at 46%. Moreover, the inhibition at 10 µM (Conc 10 uM) is 88%. Further, the inhibition at 100 µM (Conc 100 uM) was 98%.
Taken in the same sequence, the figures for `CCCCCNC(=O)C(Cc1ccc(OCCOO)c(COO)c1)NC(=O)C(Cc1ccccc1)NC(=O)Cc1ccc(C)cc1` (centres unmarked) were 39%, 85% and 98%.
Regarding `CCCCCNC(=O)C(Cc1ccc(OCCOO)c(COO)c1)NC(=O)C(Cc1ccccc1)NC(=O)Cc1ccc(C(F)(F)F)cc1` (centres unmarked), the inhibition at 1 µM came out at 39%. Further, the inhibition at 10 µM (Conc 10 uM) was determined as 85%. Further, the inhibition at 100 µM (Conc 100 uM) is 98%.
As to `CCCCCNC(=O)C(Cc1ccc(OCCOO)c(COO)c1)NC(=O)C(Cc1ccccc1)NC(=O)Cc1ccc(OC)cc1` (centres unmarked), the inhibition at 1 µM amounted to 46%. The inhibition at 10 µM (Conc 10 uM) was 87%. Further, the inhibition at 100 µM (Conc 100 uM) came to 97%.
Taken in the same sequence, the figures for `CCCCCNC(=O)C(Cc1ccc(OCC(=O)O)c(OCC(=O)O)c1)NC(=O)C(Cc1ccccc1)NC(=O)OC(C)(C)C` (centres unmarked) were 1%, 5% and 25%.
With `CCCCCNC(=O)C(Cc1ccc(OCCOO)c(COO)c1)NC(=O)C(C)NC(=O)OC(C)(C)C` (centres unmarked), the inhibition at 1 µM was 8%. Further, the inhibition at 10 µM (Conc 10 uM) was 43%. The inhibition at 100 µM (Conc 100 uM) is 86%.
Consider `CCCCCNC(=O)C(Cc1ccc(OCCOO)c(COO)c1)NC(=O)C(Cc1ccccc1)NC(=O)CCc1ccccc1` (centres unmarked), for which the inhibition at 1 µM came out at 22%. The inhibition at 10 µM (Conc 10 uM) was 74%. Also, for the setting “Conc 100 uM”, the inhibition at 100 µM came out at 95%.
Taken in the same sequence, the figures for `CCCCCNC(=O)[C@H](Cc1ccc(OCC(=O)O)c(C(=O)O)c1)NC(=O)C(Cc1ccccc1)N1CCCC1=O` (some centres unmarked) were 24%, 71% and 94%.
In the same order, the values of `CCCCCNC(=O)[C@H](Cc1ccc(OC(F)C(=O)O)c(C(=O)O)c1)NC(=O)[C@H](Cc1ccccc1)NC(=O)OC(C)(C)C` (some centres unmarked) are 34%, 76% and 95%.

(Values after patent publication US6410585B1, “Inhibitors of protein tyrosine phosphatase” (priority 1997, dated 2002).)
